Results published in EP0790293A1, “Lubricant” (Asahi Kasei Kogyo Kabushiki Kaisha, priority 1991, dated 1992).

Assays:
Type in all cases: physicochemical
[1] = Miscibility test with HFC-32
Experimental: (§1) First, 0.2 g of the oil [S1] was charged into a glass tube and then, the whole was cooled by liquid nitrogen. The interior of the glass tube was evacuated and, about 1.5 g of HFC-134a was introduced into the glass tube. The glass tube was sealed and placed in a temperature-controlled water bath. When the temperature was equilibriated, in the manner in which the miscibility of the oil [S1] with the fluoroalkane was visually evaluated, a miscibility limit was measured in the temperature range of from room temperature to 90 °C. A lower miscibility limit at temperatures lower than room temperature was likewise measured by cooling with a methanol cooling medium. The results are shown in Table 3 together with the results of Comparative Example 1.
The miscibility of the oil [S2] obtained in Referential Example 2 with HFC-32 (CH2F2) was evaluated in the same manner as in Example 1.

[2] = Kinetic viscosity (E-type rotational viscometer, Cannon-Fenske viscometer)
From the text: The kinetic viscosity of the lubricant oil for use in the present invention can be determined by measuring the viscosity by means of various viscometers. As the viscometer to be used for determining the kinetic viscosity, there can be mentioned a capillary viscometer, such as a Ubbellohde viscometer, an Ostward viscometer or a Cannon-Fenske viscometer, a rotational viscometer, and a falling ball viscometer. In the present invention, an E-type rotational viscometer (manufactured by Tokyo Keiki, Japan) and a Cannon-Fenske viscometer were used.

[3] = Evaluation of heat resistance (sealed tube test); settings: 175 °C for 10 days with HFC-134a and steel, copper, aluminum pieces
Experimental: A glass tube was charged with 0.6 ml of purified oil [S1], HFC-134a and test pieces of steal copper and aluminum, and the glass tube was then sealed to enclose a refrigerant composition therein. The refrigerant composition was heated at 175 °C for 10 days. After the heating, any change of the hue of the refrigerant composition and any change of the surfaces of the metal pieces were examined.
The heat resistances of various compounds of the present invention were evaluated according to the sealed tube test in the same manner as described above. […]

[4] = Volume resistivity, JIS C2101 (insulating oil test); settings: 20 °C; for volume resistivity: oil as obtained in the Referential Example
Experimental: Volume resistivity of the oil [S1] obtained in Referential Example 1 was measured according to the method of JIS C2101 (insulating oil test).

[5] = Insulation breakdown voltage, JIS C2101; settings: oil purified with activated carbon
Experimental: 100 g of activated carbon (Calgon® CPG, manufactured by Calgon Far East, Japan) dried in vacuum at 150 °C for 3 hours was dispersed in 400 g of R-113 to obtain a suspension, and 200 g of the oil [S1] obtained in Example 40 was added thereto, followed by agitation at room temperature overnight. The activated carbon was removed by filtration and, then, the R-113 was dis tilled off, followed by simple distillation of the oil, thereby obtaining 140 g of a colorless, transparent oil. The oil obtained according to the present purification method was analyzed by gas chromatography. […] Further, each of the volume resistivities of the oil at 20 °C before and after purification was measured in substantially the same manner as in Example 45. […] The above results are shown in Table 13, together with the results of Comparative Examples 17 through 20.

[6] = Miscibility with mineral oil; settings: weight ratio 50/50
[7] = Miscibility test with HFC-134a (sealed glass tube, visual evaluation); settings: for Temperature range for being miscible with HFC-134a lower limit temperature (°C) / Temperature range for being miscible with HFC-134a upper limit temperature (°C): 0.2 g oil, about 1.5 g HFC-134a; for Temperature range for being miscible with HFC-134a upper limit temperature (°C): measured up to 90 °C
[8] = Miscibility test with HFC-125
Experimental: as §1
The miscibility of the oil [S2] obtained in Referential Example 2 with HFC-125 (CF3CHF2) was evaluated in the same manner as in Example 1.

[9] = Miscibility test with HFC-227ea
Experimental: as §1
The miscibility of the oil [S2] obtained in Referential Example 2 with HFC-227ea (CF3CHFCF3) was evaluated in the same manner as in Example 1.

[10] = Miscibility with polypropylene glycol; settings: weight ratio 50/50; polypropylene glycol number average molecular weight 1000
[11] = Miscibility with ester oil; settings: weight ratio 50/50
[12] = Miscibility with fluoroalkanes in general
From the text: The present inventors have examined the miscibilities of perfluoropolyethers having the various structures indicated below, inclusive of perfluoropolyethers (trade name: Fomblin Y-06, Y-25 and Y-45, manufactured and sold by Nippon Montedison Co., Ltd., Japan) employed in Examples of Japanese Patent Application Laid-Open Specification Nos. 60-96684 and 1-118598, with a fluoroalkane, such as HFC-134a, HFC-134 and HFC-152a. […] Accordingly, it has been confirmed that such perfluoropolyethers are not suitable as a lubricant for use in refrigeration equipment employing a fluoroalkane, such as HFC-134a, HFC-134 and HFC-152a, as a refrigerant. [drawing 1] wherein each of q1, q2, q3, q4, q5 and q6 is a positive integer.
The miscibilities of commercially available perfluoropolyether and 2,2-bis(4-ethoxyphenyl)propane with each of the above various fluoroalkane were evaluated, in substantially the same manner as in Example 1. The results are shown in Table 3 together with data of the kinetic viscosity at 40 °C.

[13] = mixing ratio [S2]/[S2]+HFC-134a 5 % by weight
[14] = mixing ratio [S2]/[S2]+HFC-134a 10 % by weight
[15] = mixing ratio [S2]/[S2]+HFC-134a 30 % by weight
[16] = mixing ratio [S2]/[S2]+HFC-134a 50 % by weight
[17] = mixing ratio [S2]/[S2]+HFC-134a 80 % by weight

| SMILES | lower limit temperature to be miscible with HFC-32 [1] [°C] | upper limit temperature to be miscible with HFC-32 [1] [°C] | Kinetic viscosity (cSt)40°C [2] [cSt] | kinetic viscosity at 100 °C [2] [cSt] | After sealed tube test IR [3] | After sealed tube test hue [3] | After sealed tube test metal surface [3] | After sealed tube test viscosity [3] | volume resistivity [4] | Temperature range for being miscible with HFC-134a lower limit temperature (°C) [7] | Temperature range for being miscible with HFC-134a upper limit temperature (°C) [7] | also measured |
| --- | --- | --- | --- | --- | --- | --- | --- | --- | --- | --- | --- | --- |
| CC(C)(c1ccc(OC(F)(F)C(F)Cl)cc1)c1ccc(OC(F)(F)C(F)Cl)cc1 (centres unmarked) [[S1]] | -56 | ≥ 90 | 56.8 | 5.34 | not changed at all | not changed | not changed | not changed at all | 3.0 x 10^11 Ωcm | – | – | Volume resistivity (Ωcm) before purification ([4]; oil of Example 40 ([S1]) or Example 44 ([S2]) before adsorbent treatment): 1.0 x 10^11 Ωcm; volume resistivity after purification ([4]; purified with activated carbon (Calgon® CPG)): 2.2 x 10^13 Ωcm; insulation breakdown voltage [5]: ≥ 50 kV/2.5 cm; miscibility with mineral oil [6]: completely miscible |
| CC(C)(c1ccc(OC(F)(F)C(F)F)cc1)c1ccc(OC(F)(F)C(F)F)cc1 [[S2]] | ≤ -78 | 90 | 26.2 | 3.40 | not changed | not changed | not changed | not changed | 5.7 x 10^11 Ωcm | – | – | Temperature range to be miscible (°C) lower limit temperature [7, 13]: -78 or below °C; Temperature range to be miscible (°C) upper limit temperature [7, 13]: 90 or above °C; Temperature range to be miscible (°C) lower limit temperature [7, 14]: -78 or below °C; Temperature range to be miscible (°C) upper limit temperature [7, 14]: 90 or above °C; Temperature range to be miscible (°C) lower limit temperature [7, 15]: -78 or below °C; Temperature range to be miscible (°C) upper limit temperature [7, 15]: 90 or above °C; Temperature range to be miscible (°C) lower limit temperature [7, 16]: -78 or below °C; Temperature range to be miscible (°C) upper limit temperature [7, 16]: 90 or above °C; Temperature range to be miscible (°C) lower limit temperature [7, 17]: -78 or below °C; Temperature range to be miscible (°C) upper limit temperature [7, 17]: 90 or above °C; lower limit temperature to be miscible with HFC-125 [8]: ≤ -78 °C; upper limit temperature to be miscible with HFC-125 [8]: 90 °C; lower limit temperature to be miscible with HFC-227ea [9]: ≤ -78 °C; upper limit temperature to be miscible with HFC-227ea [9]: 90 °C; miscibility with polypropylene glycol [10]: completely miscible; miscibility with ester oil [11]: completely miscible |
| CCOc1ccc(C(C)(C)c2ccc(OCC)cc2)cc1 [[S14], 2,2-bis(4-ethoxyphenyl)propane] | – | – | – | – | – | – | – | – | – | – | – | miscibility with fluoroalkanes, such as HFC-134a [12]: little miscibility |
| CC(C)(c1ccc(OC(F)(F)CF)cc1)c1ccc(OC(F)(F)CF)cc1 [[S9]] | – | – | 50 | – | – | – | – | – | – | -78 or below °C | 90 or above °C | – |
| Cc1cc(C(C)(C)c2ccc(OC(F)(F)C(F)F)c(C)c2)ccc1OC(F)(F)C(F)F [[S5]] | – | – | 115 | – | not changed | not changed | not changed | not changed | 2.9 x 10^12 Ωcm | -78 or below °C | 90 or above °C | – |
| CC(C)(c1ccc(OC(F)F)cc1)c1ccc(OC(F)F)cc1 [[S7]] | – | – | 4 | – | – | – | – | – | – | -78 or below °C | 90 or above °C | – |
